Test results from patent US20110229559A1, “Drug Release From Nanoparticle-Coated Capsules” (University of South Australia, priority 2006, published 2011).

Legend:
[1] = DBP release from liquid PDMS emulsion droplets (bare or silica nanoparticle-coated) into MilliQ water, sink conditions; format: physicochemical; conditions: for release rate constant (interfacial transport): hydrophobic nanoparticle-coated liquid PDMS droplets; for activation energy (Ea) for crossing the interfacial barrier: liquid PDMS droplets, Arrhenius, 22-37° C.
Experimental: FIG. 7 is a graph of Ln (1−Mt/M0) versus time for DBP release profiles from hydrophobic nanoparticle-coated liquid PDMS emulsion (φ=0.01) containing 0.025 wt % DBP, 900 ml MQ water as dissolution medium, where […]10^−3M NaCl; ⋄10^−2 M NaCl; Δ10^−1 M NaCl;
FIG. 8 is a graph showing Arrhenius plots for DBP release profiles from hydrophobic coated liquid PDMS emulsion droplets (φ=0.01) containing 0.025 wt % DBP, 900 ml MQ water as dissolution medium, where […]10^−1 M NaCl; ⋄10^−3M NaCl;
In experiments, dibutylphthalate (DBP) was chosen as a model drug because it is a liquid that is poorly soluble but readily miscible with PDMS. Release profiles of DBP were determined from both bare droplets (i.e. droplets not coated with nanoparticles) and coated droplets (i.e. droplets coated with hydrophilic particles and from droplets coated with hydrophobic particles).
(§1) DBP was incorporated into the PDMS droplets during the synthesis step outlined in Example 3. A modification of the method reported by Obey, T. M. and Vincent, B., (1994), Journal of Colloid Interface Science, 163:454-463 and Goller, M. I. et al., (1997), Physiochemical and Engineering Aspects, 123-124 and 183-193 (without dialysis) was employed (herein incorporated by reference). PDMS droplets were prepared according to Example 3. A further batch of cross-linked PDMS droplets were prepared using the same procedure as for liquid droplets except that the mixtures of monomer and cross-linking trimer DEDMS:TEMS (tritethoxymethylsilane) at ratios 1:0.1-1 were used instead of pure monomer. The cross-linking level of the droplets prepared ranged from 0, 10, 20, 30, 40 to 50%.
(§2) Bare and nanoparticle-coated droplet samples were prepared by mixing 10 ml of the prepared emulsions with 10 ml of sonicated MilliQ water and silica aqueous dispersions, respectively. Salt concentrations were adjusted from between 10^−4 to 10^−1 M NaCl in order to control the nanoparticle layer structure as described above.
The release rate is even more retarded in the presence of a thick interfacial particle wall prepared at 10^−1 M NaCl. Thus, depending on salt concentration, hydrophobic silica nanoparticle coatings can provide a permeable or semi-permeable barrier.
The activation energy for crossing the interfacial barrier was determined using an Arrhenius approach. Release profiles for droplets coated at 10^−3 M NaCl and 10^−1 M NaCl were determined at four temperatures: 22° C., 27° C., 32° C. and 37° C. Kinetic rate constants were determined for each temperature from equation A above and from the plots Ln k vs. 1/T (FIG. 8) the activation energies (Ea) were calculated:
Aqueous solutions containing 1% diethoxy-dimethyl-silane (DEDMS), which was previously mixed with 0, 0.025, 0.1 and 0.25 wt % DBP in a nitrogen gas atmosphere, and 0.1% ammonia were sealed under nitrogen gas in a 250 ml reaction vessel, shaken vigorously for 30 seconds, and than tumbled at 30 rpm and 25° C. for 18 hours.

[2] = format: physicochemical
Experimental: FIG. 10 is a graph showing DBP release profiles in 900 ml MQ water: pure DBP added: 1.1 mg/100 ml and DBP 0.1% wt in PDMS emulsion droplets (φ=0.01), where ⋄ bare liquid PDMS droplets; □ pure DBP; Δ pure DBP with hydrophilic silica nanoparticles; ◯ pure DBP with hydrophobic silica nanoparticles; * PDMS droplets coated by hydrophilic silica (10^−2 M NaCl); x PDMS droplets coated by hydrophobic silica nanoparticles (10^−4 M NaCl); + PDMS droplets coated by hydrophobic silica nanoparticles (10^−1 M NaCl); the dotted line corresponds to the maximal DBP concentration that can be achieved in the dissolution medium;
FIG. 11 is a graph of DBP release profiles in 900 ml MQ water, pure DBP added: 2.8 mg/100 ml and DBP (0.25% wt) in PDMS emulsion droplets (φ=0.01): ⋄ bare liquid PDMS droplets; □ pure DBP; Δ pure DBP with hydrophilic silica nanoparticles; ◯ pure DBP with hydrophobic silica nanoparticles; * PDMS droplets coated by hydrophilic silica nanoparticles (10^−2 M NaCl); x PDMS droplets coated by hydrophobic silica nanoparticles (10^−4 M NaCl); + PDMS droplets coated by hydrophobic silica nanoparticles (10-1 M NaCl); dotted line correspond to the maximal DBP concentration that can be achieved in the dissolution medium;
However, the dissolution rate is increased when DBP is incorporated into PDMS emulsion droplets.
Similar trends of increased solubility rate occur when the total DBP concentration is well above the solubility limit (2.8 mg/100 ml) (FIG. 11). The observed increase in solubility of DBP is even more evident giving rise to supersaturated solutions. The intensity and duration of the “supersaturation” effect is much more pronounced for hydrophobic silica coated droplets. For hydrophilic particles, the peak in the soluble DBP concentration is at a maximum after 2 hours and then subsequently the soluble amount of DBP decreases within the next 6 hours and eventually reduces back to the solubility limit (FIG. 11).

[3] = DBP release from cross-linked PDMS emulsion droplets (bare or silica nanoparticle-coated) into MilliQ water; format: physicochemical
Experimental: (§3) FIG. 12 is a graph showing DBP release profiles from cross-linked PDMS emulsion droplets (φ=0.01) containing 0.025 wt % DBP, 900 ml MQ water as dissolution medium, where ⋄ bare PDMS droplets and PDMS droplets coated by hydrophobic silica nanoparticles: […]10^−4M NaCl; Δ10^−3M NaCl; ◯10^−1 M NaCl;
as §3, with “FIG. 13” for “FIG. 12”, “showing Ln ([…]) versus time for drug” for “showing DBP”, “where ◯” for “where ⋄”, “silica nanoparticles;” for “silica nanoparticles:”
as §3, with “15” for “12”, “0.25” for “0.025”, “DBP in emulsions,” for “DBP,”, “[…]10^−4 M” for “[…]10^−4M”, “Δ10^−3 M” for “Δ10^−3M”
as §1, §2
Cross-linked droplets (40% cross-linked) were chosen for study due to the fact that DBP partitioning coefficients were the highest at this cross-linking level, i.e. entrapment of DBP was the highest. […] Hydrophilic silica nanoparticle-coated capsules (created at 10^−2 M NaCl) and permeable, hydrophobic silica nanoparticle-coated capsules (created at 10^−4 M NaCl) have no effect on drug dissolution as opposed to semi-permeable hydrophilic/hydrophobic silica nanoparticle coatings around capsules (created at 10^−3-10^−1 M NaCl).
The rate limiting step for drug release from bare cross-linked droplets is diffusion through the internal matrix, therefore the diffusion-limited model is applicable (FIG. 12). Good linear fits were obtained for the first 120 minutes of release (FIG. 13). Calculated diffusion coefficients are presented in the table of FIG. 14 and are in agreement with typical values for drug diffusion in gels (e.g. 4.8 to 6.5 nm^2s^−1).

CCCCOC(=O)c1ccccc1C(=O)OCCCC [DBP, dibutylphthalate]
drug release from within the bare droplets ([1]; bare liquid PDMS droplets, drug concentration significantly below its solubility limit in water): rapid and complete | release rate constant (interfacial transport) ([1]; at 10^-1 M NaCl): 0.05 nm^2s^-1 | release rate constant (interfacial transport) ([1]; at 10^-3 and 10^-2 M NaCl): 0.3 nm^2s^-1 | half release time ([1]; liquid PDMS droplets coated with hydrophobic silica nanoparticles at 10^-3 and 10^-2 M NaCl, 0.025 wt % DBP): approximately 18 hours | activation energy (Ea) for crossing the interfacial barrier ([1]; nanoparticle layer prepared at 10^-1 M NaCl): 630 kJmol^-1 | activation energy (Ea) for crossing the interfacial barrier ([1]; nanoparticle layer prepared at 10^-3 M NaCl): 580 kJmol^-1 | time after which amount in solution reduces to the normal solubility limit (duration of supersaturation) [2]: 10 h | time of peak soluble DBP concentration [2]: 2 h | time to achieve the equilibrium solubility level [2]: approximately 20 hours | activation energy for drug diffusion ([3]; bare cross-linked droplets): 127±15 kJmol^-1 | time for release process to reach equilibrium ([3]; cross-linked PDMS droplets, 0.025 wt % DBP): approximately 2 hours | activation energy for drug diffusion ([3]; cross-linked droplets with hydrophobic silica nanoparticle coating, first value given): 155 kJmol^-1 | diffusion coefficient ([3]; cross-linked droplets with hydrophobic silica nanoparticle coating, first value given (salt level not stated, presumably 10^-3 M NaCl)): 3.2 nm^2s^-1 | activation energy for drug diffusion ([3]; cross-linked droplets with hydrophobic silica nanoparticle coating, second value given): 177±25 kJmol^-1 | diffusion coefficient ([3]; cross-linked droplets with hydrophobic silica nanoparticle coating, second value given (salt level not stated, presumably 10^-1 M NaCl)): 2.4±0.5 nm^2s^-1 | diffusion coefficient ([3]; cross-linked droplets, DBP concentration above the solubility limit (0.25 wt %), first 90 minutes): 3.5±0.5 nm^2s^-1 | amount of DBP loaded still remaining in the droplets after 2 hours ([3]; cross-linked droplets, bare and coated with permeable silica nanoparticle coatings at 10^-4 M NaCl): 25% | amount of DBP loaded still remaining in the droplets after 2 hours ([3]; cross-linked droplets, silica coating at 10^-1 M NaCl): 46% | amount of DBP loaded still remaining in the droplets after 2 hours ([3]; cross-linked droplets, silica coating at 10^-3 M NaCl): 37%
